Consider 3 compounds from patent US20110312897A1, “CATHEPSIN L PROTEOLYTICALLY PROCESSES HISTONE H3 DURING MOUSE EMBRYONIC STEM CELL DIFFERENTIATION” (THE ROCKEFELLER UNIVERSITY, priority 2008, published 2011).

The target in assay [1] is T1, H3 protease activity in fraction #23 (Mus musculus, UniProt P06797).
T1 construct: a double chain mature form at ˜25 kD and ˜5 kD; endogenous in cells; host or cells: chromatin of 3 days +RA differentiating mouse ESCs (LF2), hydroxyapatite fraction #23
Nature of the assay: In vitro H3 cleavage assay of hydroxyapatite fraction #23 +/- protease inhibitors. It counts as biochemical. As to the method: (§1) Extracts were incubated in buffer (10 mM HEPES, 10 mM KCl, 1.5 mM MgCl2, 0.34M sucrose, 10% glycerol, 5 mM β-mercaptoethanol, all final) with 0.1 μg/μl rH3-HIS (purified from E. coli) and incubated at 37° C. for 1-3 hours. Reactions were stopped by addition of 5×SDS sample buffer and boiling; results were analyzed by immunoblotting with HIS-HRP and/or H3.cs1 antibody. For MS analysis, reactions were quenched by addition of 0.1% (final) TFA. rCathepsin L (R&D Systems, # 1515-CY-010), rCathepsin B (R&D Systems Cat No. BAF965), and rCathepsin K (Calbiochem Cat. No. 342001) were purchased from commercial sources and tested in the assay with rH3-HIS.
Three days+RA differentiating ESC chromatin pellets were solubilized by sonication in buffer A (80 mM NaPO^−4, 200 mM NaCl), injected onto a 2 or 5 mL hydroxyapatite column (BioRad), and fractionated with a 200 mM to 2M NaCl gradient. Each fraction was then assayed as described above. […] Digest was then acidified with glacial acetic acid and aliquots of samples were analyzed using an LTQ-FT as described above. Data was searched against a mouse database using SEQUEST (Eng et al., Journal of the American Society of Mass Spectrometry 5:976-989 (1994), which is hereby incorporated by reference in its entirety). All spectra of interest were manually validated.
To validate further the identification of Cathepsin L as a histone H3 protease, the enriched fractions were tested with different classes of protease inhibitors in the H3 cleavage assay.

Assay [2] concerns the target T2, Recombinant mouse Cathepsin L (Mus musculus, UniProt P06797).
T2 construct: purchased R&D Systems 1515-CY-010
Nature of the assay: Inhibition of recombinant mouse Cathepsin L cleavage of rH3-HIS by E64 (immunoblot, FIG. 13). As to conditions: pH 7.5 and pH 5.5; E64 10 μM, 50 μM, and 500 μM. Format: biochemical. As to the method:
Recombinant mouse Cathepsin L was incubated with C-terminally HIS-tagged recombinant histone H3 at both pH 7.5 (left) and pH 5.5 (right) in either buffer alone (−) or in the presence of the cysteine protease inhibitor E64 (+); the final concentration of E64 was 10 μM, 50 μM, and 500 μM.
as §1
On the technique in general: A western blot detects proteins with antibodies after separation by electrophoresis.

The target in assay [3] is cathepsin L (Homo sapiens, UniProt P07711). The settings on record: cited from earlier work.
Assay [4] has as its target cathepsin D (Homo sapiens, UniProt P07339). The settings on record: cited from earlier work.
Assay [5] has as its target T3, Cbx7-CD protein (Mus musculus, UniProt Q8VDS3).
T3 construct: the chromodomain of mouse CBX7; made in house
T3 sequence (Q8VDS3 11-69 limits assumed): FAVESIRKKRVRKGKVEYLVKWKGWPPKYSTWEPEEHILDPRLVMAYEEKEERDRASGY
Nature of the assay: Fluorescence anisotropy of Cbx7-CD binding to H3 peptides. The settings on record: p<0.01. As for the experimental part:
FIG. 7A is an immunoblot showing cleavage of the modified recombinant histone 3 substrates following incubation with rCathepsin L. The four rH3 substrates used in the cleavage assay include: 1=rH3 unmodified, 2=rH3 alkylated to K27me2, 3=rH3 pan-acetylated with acetic anhydride, 4=rH3+K27me2 pan-acetylated with acetic anhydride. FIG. 7B is a graph showing the amount of recombinant H3 cleavage product formed following incubation with Cathepsin L. H3 cleavage reactions were performed as in FIG. 7A using synthesized H3 peptides representing amino acids 15 to 31. Reactions were incubated with ˜250 pmol peptide and quenched with 0.1% TFA before being plated in duplicate for ELISA with the H3cs.1 antibody. Signal was normalized to that of mock reactions for each peptide. Results represent three independent experiments. […] Binding decreases 3-fold with cleaved peptide. p<0.01. Kds are in μM±SEM. Data points represent the mean±SD
What effect the cleavage of the H3 tail, a proteolytic modification rather than a covalent modification, might have on the binding of effector proteins was examined. […]
A general note: In fluorescence polarisation assays a small probe gives low polarisation when free and higher when bound to something large.

The target in assay [6] is T4, chromodomain of mouse CBX7 (Mus musculus, UniProt Q8VDS3).
T4 construct: the chromodomain of mouse CBX7; made in house
T4 sequence (Q8VDS3 11-69 limits assumed): T3 sequence (Q8VDS3 11-69 limits assumed)
The assay can be described thus: Peptide pull-down assay. Format: binding. The settings on record: cleaved vs non-cleaved H3 tail peptide. As to the method:
Peptide pull-down assays were performed as described Wysocka, J. “Identifying Novel Proteins Recognizing Histone Modifications Using Peptide Pull-down Assay,” Methods 40:339-343 (2006), which is hereby incorporated by reference in its entirety, using biotinylated peptides conjugated to streptavidin agarose beads (Pierce Cat. No. 20349). Elutions were loaded onto 10 or 15% SDS-PAGE gels and silver stained.
What effect the cleavage of the H3 tail, a proteolytic modification rather than a covalent modification, might have on the binding of effector proteins was examined. Given that K27 methylation is a well-documented binding site for the chromodomain-containing protein Polycomb (Bernstein et al., “Mouse Polycomb Proteins Bind Differentially to Methylated Histone H3 and RNA and are Enriched in Facultative Heterochromatin,” Mol Cell Biol 26:2560-2569 (2006) and Fischle et al., “Molecular Basis for the Discrimination of Repressive Methyl-lysine Marks in Histone H3 by Polycomb and HP1 Chromodomains,” Genes Dev 17:1870-1881 (2003), which are hereby incorporated by reference in their entirety), the effect of H3 cleavage on Pc binding to H3K27 methylation was tested. […]

Where no end group is shown, it is not given here.

T1 sequence (P06797 114-288 limits assumed): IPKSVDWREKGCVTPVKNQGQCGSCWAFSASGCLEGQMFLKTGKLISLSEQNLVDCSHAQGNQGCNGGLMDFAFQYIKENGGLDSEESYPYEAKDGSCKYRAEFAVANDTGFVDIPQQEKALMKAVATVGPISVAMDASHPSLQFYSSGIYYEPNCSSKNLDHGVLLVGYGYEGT
T1 sequence (P06797 291-334 limits assumed): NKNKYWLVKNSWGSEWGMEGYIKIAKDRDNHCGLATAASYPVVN
Chain of cathepsin L (P07711 114-333, species assumed): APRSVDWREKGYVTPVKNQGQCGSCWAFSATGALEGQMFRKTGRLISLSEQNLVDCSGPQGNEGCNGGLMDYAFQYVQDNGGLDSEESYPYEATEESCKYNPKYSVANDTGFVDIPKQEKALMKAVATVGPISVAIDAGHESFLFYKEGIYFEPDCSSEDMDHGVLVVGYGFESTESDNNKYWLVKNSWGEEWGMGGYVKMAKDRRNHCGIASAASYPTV
T2 sequence (P06797 114-334): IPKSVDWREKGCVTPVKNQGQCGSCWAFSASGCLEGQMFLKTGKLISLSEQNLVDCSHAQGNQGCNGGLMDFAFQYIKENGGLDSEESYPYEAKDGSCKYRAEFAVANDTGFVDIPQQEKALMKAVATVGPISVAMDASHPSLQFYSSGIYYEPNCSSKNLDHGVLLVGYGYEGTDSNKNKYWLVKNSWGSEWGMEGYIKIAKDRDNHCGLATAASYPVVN
Chain of cathepsin D (P07339 65-412): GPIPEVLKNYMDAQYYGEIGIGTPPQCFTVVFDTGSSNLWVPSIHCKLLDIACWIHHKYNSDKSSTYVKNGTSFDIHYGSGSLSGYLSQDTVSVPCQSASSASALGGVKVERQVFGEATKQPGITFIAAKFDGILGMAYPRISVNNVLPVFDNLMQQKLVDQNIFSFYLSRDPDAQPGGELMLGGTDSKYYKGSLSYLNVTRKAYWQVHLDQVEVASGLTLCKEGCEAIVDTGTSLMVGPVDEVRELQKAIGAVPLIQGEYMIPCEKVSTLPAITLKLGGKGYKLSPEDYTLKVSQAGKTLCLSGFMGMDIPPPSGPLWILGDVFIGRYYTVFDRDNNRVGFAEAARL

In the case of `CC(C)C[C@H](NC(=O)[C@H]1O[C@@H]1C(=O)O)C(=O)NCCCCN=C(N)N` (relative stereo) [E64, L-trans-Epoxysuccinyl-leucylamido(4-guanidino)butane], the H3 cleavage activity result in assay [1] (E64 10 μM, lowest concentration tested) is listed as “all cleavage was abolished”. For the same compound, in assay [1] (FIG. 4A), the “inhibition of H3 protease activity in fraction #23” value was “potent inhibitor of the H3 protease activity”. Further, the “inhibition of recombinant mouse Cathepsin L (rH3-HIS cleavage)” value in assay [2] is on record as “inhibition of recombinant mouse Cathepsin L”.

`NC(N)=O` [Urea]: the “enhancement of cathepsin L activity, factor” value in assay [3] is recorded as 2.5. The “enhancement of cathepsin D activity, factor” value in assay [4] is 6.

Turning to “cleaved peptide: peptide mimicking the cleaved H3 tail, amino acid residues 22-37, K27 methylated (TKAARK(Me)SAPATGGVKK; not fully specified)”, the “decrease in Cbx7-CD binding vs non-cleaved peptide (amino acid residues 18-37)” value in assay [5] came to 3 fold. The “CBX7 binding to methylated H3K27” value in assay [6] is reported as “greatly diminished”.
